Earlier results on three molecules are cited in patent US11739076B2, “Compound or its salt thereof targeting fibroblast activation protein, its preparation methods and its uses thereof” (Institute of Nuclear Energy Research Atomic Energy Council, …, priority 2021, dated 2023).

Structures are written as SMILES.

One series relates to tumor. Particulars: in vivo.

On to `N#C[C@@H]1CCCN1C(=O)CNC(=O)c1ccnc2ccc(OCCCN3CCN(C(=O)CN4CCN(CC(=O)O)CCN(CC(=O)O)CCN(CC(=O)O)CC4)CC3)cc12` [FAPI-02], for which the “binding ratio of FAP and DDP4” value with FAP and DDP4 is on record as 45.
For `N#C[C@@H]1CC(F)(F)CN1C(=O)CNC(=O)c1ccnc2ccc(OCCCN3CCN(C(=O)CN4CCN(CC(=O)O)CCN(CC(=O)O)CCN(CC(=O)O)CC4)CC3)cc12` [FAPI-04], the “binding ratio of FAP and DDP4” value in the series on FAP and DDP4 is given as 750.
Take `CN(CCCN1CCN(C(=O)CN2CCN(CC(=O)O)CCN(CC(=O)O)CCN(CC(=O)O)CC2)CC1)c1ccc2nccc(C(=O)NCC(=O)N3CC(F)(F)C[C@H]3C#N)c2c1` [FAPI-46]: in the series on tumor, the “tumor uptake and tumor-to-tissue ratio” value is “excellent tumor uptake and high tumor-to-tissue ratio”. Besides, the “accumulation in the oral mucosa, salivary glands and thyroid glands” value with tumor (po) is reported as “does not”.
